Source: patent US20210113594A1, “TUMOR IMMUNOMODULATOR” (OSAKA UNIVERSITY, priority 2018, published 2021)

Experiments:
[1] = system: IFNγ-producing CD8+T cells; experiment: IFNγ production assay on cells from lung cancer tissue; format: cell-based, human; details: BiTE + test drug (DMC), n=3 patients
Description: The IFNγ production capacity of cells in all media that were collected in section 5 in accordance with the method described in section 1(4) above was measured using an IFNγ secretion assay kit (Miltenyi Biotec).
The medium collected in section 1(4) above was centrifuged at 400 g for 5 minutes to remove the supernatant. An IFNγ catch reagent diluted 100-fold in a 10% human serum-supplemented AIM medium was added at 100 μL/tube to the remaining PBMC pellet to suspend the PBMCs, followed by incubation at 4° C. for 10 minutes.
A 10% human serum-supplemented AIM medium heated to 37° C. was dispensed at 1 mL/tube into the tube subjected to the incubation. While stirring the tube, incubation was performed at 37° C. for 45 minutes. […]
(§1) According to the method described in section I.5 above, T cells in tumor tissue of a lung cancer patient were collected; and by using such cells, tumor-cytotoxic activity was measured to examine the effect of the tetracycline-based compound. Specifically, T cells in tumor tissue of a lung cancer patient were collected according to the method described in section I.5 above; and the presence ratio of IFNγ-producing CD8^+T cells was measured according to the method described in section I.6 above, thus examining the effect of the tetracycline-based compound.

[2] = system: U251 cell line; experiment: Tumor-cytotoxic activity of T cells in lung cancer tissue; format: cell-based, human; details: BiTE + test drug (DMC); n=5 patients
Description: Regarding the tumor-cytotoxic activity of T cells in lung cancer tissue, cells were collected from lung cancer tissue according to the following method. The tumor-cytotoxic activity was measured as the activity of the cell population.
The cancer tissue was transferred to a 6-cm dish and minced. The cancer tissue was then placed in a tissue stirring solution (tumor dissociation Kit (Miltenyi Biotec) was added to HBSS+2% FBS+10 mM HEPES), followed by stirring with a gentle MACS™ Dissociator (Miltenyi Biotec). Incubation was then performed by rotating the mixture in an incubator maintained at 37° C. for 30 minutes. […] The tumor-cytotoxic activity of the collected cells was measured in accordance with the same method as in section I.1(1) to (5) above. […]
as §1

[3] = system: CMV-specific cytotoxic T cells; experiment: CMV-specific CTL induction (mixed CMV peptide/lymphocytes culture); format: cell-based, human; details: DMC 2.5 μM; 14 days after CMV peptide stimulation; PBMCs of one healthy person; p<0.05
Description: CMV peptides adjusted to 10 μg/mL in a 10% FBS-supplemented RPMI medium was added to PBMCs of healthy people with an HLA type of 24:02, followed by culture in a 96-well plate for 3 days. […] The medium containing PBMCs in each well was transferred into a 24-well plate for scale-up, followed by culture for another 3 days in a 10% FBS-supplemented RPMI medium containing 10 μg/mL peptide+20 U/mL IL-2±2.5 μM DMC. The medium was replaced with a 10% FBS-supplemented RPMI medium containing 10 μg/mL peptide+20 U/mL IL-2±2.5 μM DMC, followed by culture for another 4 days (culture for 14 days).
After the completion of culture, centrifugation was performed at 400 g for 5 minutes to remove the supernatant and leave the PBMC pellet; and each antibody (CD3, CD4, and CD8) was diluted 100-fold, and CMV Tetramer was diluted 10-fold in a HBSS+2% FBS+10 mM HEPES medium, and added at 30 μL/tube to a PBMC pellet to suspend the PBMCs, followed by incubation at 4° C. for 30 minutes. By adding the HBSS+2% FBS+10 mM HEPES medium at 200 μL/tube, centrifugation was performed at 400 g for 5 minutes. The supernatant was removed to leave the PBMC pellet.
The PBMCs left in the HBSS+2% FBS+10 mM HEPES medium were suspended, and the suspension was subjected to FACS analysis. […]

[4] = system: CT26WT cells; experiment: Dependence on CD8+T cells of the enhancement of the anti-PD-L1 antibody in vivo (Example 9); set-up: species or system BALB/c mice
Description: In the same manner as in Example 8, CT26WT cells were cultured, and subcutaneously inoculated to 6-week-old BALB/c mice (Day 0).
Before the administration of DMC or water and an anti-PD-L1 antibody, the anti-CD8 antibody (InVivo MAb anti-mouse CD8α, produced by BioXCell) was intraperitoneally administered at 400 μg/200 μL/mouse to the CD8 depletion group on Day 6. Control IgG was administered at 400 μg/200 μL/mouse to the other groups.
Next, administration of DMC was started on Day 7. The DMC was dissolved in saline, and then orally administered at 200 μL/mouse using an oral sonde. In the groups free of DMC, distilled water was orally administered at 200 μL/mouse. The DMC was administered once daily from Day 7 to Day 12.
Subsequently, on Day 10, an anti-PD-L1 antibody or control IgG was intraperitoneally administered at 200 μg/200 μL/mouse.
On Day 10 and Day 13, the tumor size was measured. The tumor volume was calculated in the same manner as in Example 8.

[5] = system: CD8+T cells; experiment: CytoTell assay, proliferative capacity of CD8+T cells; format: cell-based, human; details: DMC 2.5 μM + BiTE; PBMCs of five healthy people; 96 hours; p=0.007
Description: PBMCs were collected from peripheral blood of healthy people according to the method described in section 1(1) above. A solution in which CytoTell red was mixed with the HBSS+2% FBS+10 mM HEPES medium was added to the collected PBMC pellet, followed by incubation at 37° C. for 30 minutes. After the completion of incubation, the supernatant was removed by centrifugation at 400 g for 5 minutes to leave the PBMC pellet. By adding a 10% FBS-supplemented RPMI medium, the remaining PBMCs were suspended to prepare a suspension of PBMCs having a cell count of 1×10^6/mL.
As in section 1(3) above, a U251 cell line, PBMCs, and BiTE, or a U251 cell line, PBMC, BiTE, and a test drug, were contacted and cultured at 37° C. for 96 hours.
After the completion of culture, the culture supernatant was collected, followed by washing in a 10% FBS-supplemented RPMI 1640 medium three times, and the media were also collected.
The collected medium was centrifuged at 400 g for 5 min, and the supernatant was removed to leave the PBMC pellet. Each antibody (CD3, CD4, CD8, and CD45RA) was diluted 100-fold with a HBSS+2% FBS+10 mM HEPES medium. The antibody diluents were individually added at 30 μL/tube to the pellet to suspend the remaining PBMCs, followed by incubation at 4° C. for 30 minutes. […]

[6] = system: granzyme B-expressing CD8+T cells; experiment: Granzyme B staining (FACS) of PBMCs; format: cell-based, human; details: DMC 2.5 μM + BiTE; PBMCs of four healthy people; p=0.01
Description: The medium collected in section 1(4) above was centrifuged at 400 g for 5 minutes, and the supernatant was removed to leave the PBMC pellet. Each antibody (CD3, CD4, CD8, and CD45RA) was diluted 100-fold with 2% FBS- and 10 mM HEPES-supplemented HBSS medium (“HBSS+2% FBS+10 mM HEPES” medium). Such antibody diluents were individually added at 30 μL/tube to the pellet in which the supernatant was removed, followed by incubation at 4° C. for 30 minutes. After an HBSS+2% FBS+10 mM HEPES medium was added at 200 μL/tube, and centrifugation was performed at 400 g for 5 minutes, the supernatant was removed to leave the pellet. After the remaining PBMCs were suspended by adding a fix buffer at 100 μL/tube, incubation was performed for 30 minutes at 4° C.
The tube obtained after the completion of incubation was centrifuged at 400 g for 5 minutes to remove the supernatant and leave the PBMC pellet. After a wash buffer was added at 200 μL/tube to suspend the pellet, centrifugation was performed at 400 g for 5 minutes to remove the supernatant and leave the PBMC pellet. An anti-Granzyme B antibody was diluted 100-fold in a wash buffer, and the remaining PBMCs were suspended in the antibody diluent (30 μL/tube), followed by incubation for 30 minutes at 4° C. […]

[7] = system: U251 cell line; experiment: Tumor-cytotoxic activity using peripheral blood mononuclear cells with EphA2-CD3 BiTE; details: test drug 2.5 μM + BiTE 100 ng/mL; PBMCs of healthy people + U251; 48 hours; n=3; DMC, MC, CTC p<0.01; TC, MINO p<0.05
Description: Thereafter, by measuring the degree of cytotoxicity to the tumor cells (tumor-cytotoxic activity) by the PBMCs, the anti-tumor activity of T cells in the PBMCs was evaluated.
(1) A U251 cell line was suspended in a RPMI1640 medium containing 10% FBS (a 10% FBS-supplemented RPMI1640 medium), and then detached with trypsin. The cell line was suspended in a 10% FBS-supplemented RPMI1640 medium such that the cell count was 1×10^5/mL, thereby preparing a cell suspension. The cell suspension was seeded in a 96-well plate at a rate of 100 μL/well, and incubated in a wet incubator at 37° C. for 18 hours in the presence of 5% CO2 gas. […]
(3) EphA 2-CD3 BiTE (registered trademark) containing an antigen-binding domain for EphA2 and an antigen-binding domain for CD3 in the molecule was prepared at 400 ng/mL in a 10% FBS-supplemented RPMI 1640 medium (“BiTE solution”). […] The amount of the 10% FBS-supplemented RPMI medium per well was determined so that the total final amount was 200 μL. […]
(5) The absorbance at 492 nm of each well of the 96-well microplate after the completion of incubation in step (4) was measured with a microplate reader. Subsequently, tumor-cytotoxic activity was calculated in accordance with the following equation.
Absorbance of a well consisting of U251 cell line and PBMCs=A […]

| SMILES | presence ratio of IFNγ-producing CD8+T cells compared to BiTE alone [1] | anti-tumor activity of T cells in lung cancer tissue compared to BiTE alone [2] | presence ratio of CMV-specific cytotoxic T cells (CMV Tetramer+CD8+T cells), DMC+ as compared to DMC− [3] | tumor volume on Day 13 ([4]; Example 9, DMC 30 mg/kg oral Day 7 to Day 12, anti-PD-L1 antibody or control IgG 200 μg/mouse ip Day 10, no CD8 depletion) | increase in tumor volume as compared to the aPD-L1+H2O group ([4]; IgG+DMC group, DMC 30 mg/kg oral) | proliferative capacity of CD8+T cells as compared to BiTE alone [5] | presence ratio of granzyme B-expressing CD8+T cells as compared to BiTE alone [6] | T-cell anti-tumor activity (tumor-cytotoxic activity) as compared to BiTE alone [7] |
| --- | --- | --- | --- | --- | --- | --- | --- | --- |
| CN(C)[C@@H]1C(O)=C(C(N)=O)C(=O)[C@@]2(O)C(O)=C3C(=O)c4c(O)ccc(Cl)c4[C@@H](O)[C@H]3C[C@@H]12 [DMC, demethyl chlortetracycline] | increased | enhanced | significantly high | about 100 mm^3 | more inhibited | high | high |  |
| CN(C)[C@@H]1C(=O)C(C(N)=O)=C(O)[C@@]2(O)C(=O)C3=C(O)c4c(O)cccc4[C@@](C)(O)[C@H]3C[C@@H]12 [TC, tetracycline] |  |  |  |  |  |  |  | enhanced |
